According to PMC4926499, “TSPO Ligand-Methotrexate Prodrug Conjugates: Design, Synthesis, and Biological Evaluation” (International Journal of Molecular Sciences, 2016):
Where two headings read alike, the source gives them in different places.

Assays:
SF126 human glioma cells = assay: Cytotoxicity by MTT assay, SF126 cells; type: cell-based; conditions: SF-126
RG2 rat glioma cells = assay: Cytotoxicity by MTT assay, RG2 cells; type: cell-based; conditions: Glioma cell, 24 h exposure
From the text: (§1) These cellular lines were selected for their high expression level of TSPO and, therefore, have been used extensively for in vitro experiments on the brain tumor models and for cytotoxicity studies relating to anticancer drugs, as well as TSPO-ligands and its nanodevices. The tested compounds show high cytotoxicity on all cell lines, especially for C6 rat glioma cells. In particular, the TSPO-ligand MTX α-conjugates 3 appears to be the most cytotoxic displaying a lower IC50 value compared to MTX on C6 cells.
(§2) Rat RG2 and C6 glioma cells were grown in DMEM (Dulbecco’s modified Eagle’s medium, Sigma Aldrich, Milano, Italy) nutrient supplemented with 10% heat inactivated FBS (Fetal Bovine Serum, Sigma Aldrich), 2 mM, L-glutamine, penicillin (100 U/mL), and streptomycin (100 µg/mL) at 37 °C in a humidified 5% CO2 atmosphere. Cells were fed every day and seeded in 96-well plates at a density of ~5000 cells/well for assays. MTX and TSPO ligand-MTX conjugates were dissolved in DMSO at initial concentrations of 1000 µg/mL and then diluted with medium. Cells were exposed to different concentrations of compounds (0.1–1000 nM) for 24 h.
(§3) Cell viability was evaluated by MTT (3-(4,5-dimethylthiazol-2-yl)-2,5-diphenyltetrazolium bromide) assay as previously described. In brief, 10 µL of MTT (5.0 mg/mL) was added to the cells and cultured at 37 °C, in a humidified 5% CO2 atmosphere for 2 h. After this period, medium was removed and the cells were replaced with 150 µL of a DMSO/ethanol (1:1) solution per well. The absorbance of the individual well was measured by microplate reader (Wallac Victor3, 1420 Multilabel Counter, Perkin-Elmer (Waltham, MA, USA). All experiments were repeated three times and each compound’s concentration was tested in triplicate.

[1] = Chemical stability in 50 mM phosphate buffer pH 7.4 at 37 °C; type: physicochemical; conditions: 0.05 M phosphate buffer pH 7.4, 37 °C; read-out: t1/2 (h) PBS (converted)
Protocol: (§4) The chemical stability of the TSPO-ligand MTX conjugates 3 and 4 was evaluated in 50 mM phosphate buffer solution at pH 7.4 and 37 °C; the physiological stability was also determined using a dilute rat serum solution (50% v/v) at 37 °C. The aim of this work is the synthesis of TSPO ligand-MTX conjugates in order to improve the plasma stability and having less side effects than MTX. In addition TSPO ligand-MTX conjugates could enhance the transport across BBB and due a tumor targeting effect for the TSPO moiety, might selectively deliver the antineoplastic agent to brain tumors and prolong its efficacy. The TSPO-ligand MTX conjugates 3 and 4 are stable in buffer solution at pH 7.4 and enough stable in physiological medium with their half-lives exceeding 3 h. […] In addition, CB86 (m/z = 407, [M + Na]^+) (Figure 1), most likely originating from the degradation of ligand 2, as previously shown, could be detected. Other products arising from the further degradation of the anticancer drug were found.
TSPO ligand-MTX conjugates 3 and 4 chemical stabilities were studied at pH 7.4 in 0.05 M phosphate buffer at 37 °C. […] At appropriate time intervals, aliquots of 100 µL of each sample were removed, filtered through cellulose acetate membranes (0.22 µm, Advantec MFS, Pleasanton, CA, USA), and then 20 µL of filtrates were immediately analyzed by HPLC. […]

[2] = Stability in diluted rat serum solution (50% v/v) at 37 °C; type: in vitro ADME; conditions: diluted rat serum (50% v/v), pH 7.4, 50% v/v rat serum, pH 7.4, 37 °C, read-out: t1/2 (h) Diluted Rat Serum
Protocol: as §4
The TSPO ligand-MTX conjugates 3 and 4 stabilities in physiological medium were studied at 37 °C in 0.05 M phosphate buffer and 0.14 M NaCl at pH 7.4, containing 50% v/v of rat serum. […] Samples were centrifuged at 3500 rpm for 10 min, and the supernatant was removed, filtered through cellulose acetate membranes (0.22 µm, Advantec MFS) and then 20 µL of filtrates were immediately analyzed by HPLC. […]

[3] = Transport across MDCKII-MDR1 cell monolayer; conditions: dog, MDCK-MDR1, pH 7.4
Protocol: (§7) The apparent permeability coefficient (Papp) of each compound was calculated on the basis of the amounts permeated through MDCKII-MDR1 monolayer by the equation: Papp=VA dC/A[D]in dt where VA (dC/dt) is the linear appearance rate of mass in the receiver solution; A is the filter/cell surface area and [D]in is the initial tested compound concentration in the apical (AP) chamber. The Papp values were evaluated in apical to basolateral direction. […] On an experimental day, the integrity of the cell monolayer was assessed by measuring the transendothelial electrical resistance (TEER) value.
(§8) The bi-directional transport study was conducted as previously reported [15]. A Transwell® 12 plate consisting of differentiated MDCKII-MDR1cells plated on polyester microporous filters (12 mm diameter, 0.4 µm pore size, 0.5 mL apical volume, 1.5 mL basolateral volume) at a density of 100,000 cells/cm^2, was used for the permeability assay. The integrity of the cell monolayer was assessed by measuring the TEER value in each well, using an epithelial volt-ohm meter (EVOM). Cell monolayers with TEER 120–140 Ohm/cm^2 were used. […] Fresh assay medium was placed in the receiver compartment. […] After incubation time of 2 h, samples were removed from the apical side of the monolayer and then analyzed. […] All experiments were repeated three times and each compound was tested in triplicate.

TSPO [4] = target: T1, TSPO (Rattus norvegicus, UniProt P16257); assay: Radioligand binding assay, displacement of [3H]-PK 11195 from rat cerebral cortex membranes; conditions: for SI (selectivity index): IC50(CBR)/IC50(TSPO); for IC50: rat cerebral cortex membranes, [3H]-PK 11195
T1 construct: from tissue; host or cells: rat cerebral cortex membranes
Protocol: (§5) The IC50 values were determined from the displacement curves using the reference compound [^3H]-PK 11195, for TSPO, or [^3H]flunitrazepam for CBR. The data obtained, expressed as IC50 values, as well as the ratios between CBR and TSPO affinity, respectively (Selectivity Index, SI), as a measure of the in vitro selectivity, are shown in Table 2 and were compared with unlabeled TSPO selective ligand PK 11195, and with CBR selective ligand flunitrazepam. […] Moreover, the SI of TSPO-ligand MTX conjugate 3 is similar to the reference compound PK 11195. […] Thus, the binding quantification of TSPO ligands is confounded by the expression of different forms of TSPO and to assess the potentially therapeutic use of TSPO-ligands would be appropriate to genetically test the patients.
(§6) Binding assays ([^3H]Flunitrazepam and [^3H]PK 11195 bindings) were assessed to membrane preparations from rat cerebral cortex as described previously. The IC50 values (GraphPad Prism software, (La Jolla, CA, USA)) were determined from the displacement curves using the reference compound [^3H]-PK11195, for TSPO or [^3H]flunitrazepam, for CBR, respectively. The selectivity index (SI) was calculated from: IC50(CBR)/IC50(TSPO).

[5] = target: central-type benzodiazepine receptor (CBR); assay: Radioligand binding assay, displacement of [3H]flunitrazepam from rat cerebral cortex membranes
Protocol: as §5, §6

C6 rat glioma cells = assay: Cytotoxicity by MTT assay, C6 cells; type: cell-based; conditions: Glioma cell, 24 h exposure
From the text: as §1, §2, §3

SF188 human glioma cells = assay: Cytotoxicity by MTT assay, SF188 cells; type: cell-based; conditions: SF-188
[6] = target: central-type benzodiazepine receptor (CBR); conditions: rat cerebral cortex membranes, [3H]flunitrazepam; cited from earlier work
TSPO [7] = target: T1, TSPO; conditions: cited from earlier work
in vitro = conditions: dog, MDCK-MDR1, pH 7.4
Protocol: as §7, §8

With `CCCN(CCC)C(=O)Cc1c(-c2ccc(Cl)cc2)nc2c(NC(=O)CNC(=O)C(CCC(=O)O)NC(=O)c3ccc(N(C)Cc4cnc5nc(N)nc(N)c5n4)cc3)cccn12` (centres unmarked) [Compound 3, 5-(2-(2-(4-Chlorophenyl)-3-(2-(dipropylamino)-2-oxoethyl)imidazo[1,2-a]pyridin-8-ylamino)-2-oxoethylamino)-4-(4-(((2,4-diaminopteridin-6-yl)methyl)(methyl)amino)benzamido)-5-oxopentanoic acid] the melting point was 210 °C (dec.), the IC50 (SF126 human glioma cells) was 14.2 ± 4.2 nM and the IC50 (RG2 rat glioma cells) was 4.2 ± 3.2 nM. It also gave a half-life [1] of 144 ± 25 h, a half-life [2] of over 3 h and a Papp at 2 h, 75 µM [3] of 3.65 ×10⁻⁶ cm/s. For the same compound, the “SI (selectivity index)” value (TSPO [4]) was >1.4 × 10^4, the IC50 (TSPO [4]) was 7.2 ± 2.1 nM and the IC50 [5] was over 100000 nM. For the same compound, the IC50 (C6 rat glioma cells) was 1.2 ± 0.7 nM and the IC50 (SF188 human glioma cells) was 9.2 ± 3.4 nM.

For `CCC(C)N(C)C(=O)c1cc2ccccc2c(-c2ccccc2Cl)n1` (centres unmarked) [PK11195], the IC50 [6] is listed as over 100000 nM.

In the case of `CCCN(CCC)C(=O)Cc1c(-c2ccc(Cl)cc2)nc2c(NC(=O)CN)cccn12` [Compound 2, N,N-dipropyl-[2-(8-(2-aminoacetamido)-2-(4-chlorophenyl)imidazo[1,2-a]pyridin-3-yl)]acetamide], the “SI (selectivity index)” value (TSPO [7]; IC50(CBR)/IC50(TSPO)) is listed as >4.1 × 10^3, the IC50 (TSPO [7]; read-out: IC50 (nM) TSPO Cortex, rat cerebral cortex membranes, [3H]-PK 11195) is listed as 24 ± 4.2 nM and the IC50 [6] is listed as over 100000 nM.

For `CN1C(=O)CN=C(c2ccccc2F)c2cc([N+](=O)[O-])ccc21` [Flunitrazepam], the IC50 [6] is listed as 5.1 ± 0.5 nM.

With `CCCN(CCC)C(=O)Cc1c(-c2ccc(Cl)cc2)nc2c(NC(=O)CNC(=O)CCC(NC(=O)c3ccc(N(C)Cc4cnc5nc(N)nc(N)c5n4)cc3)C(=O)O)cccn12` (centres unmarked) [Compound 4, 5-(2-(2-(4-Chlorophenyl)-3-(2-(dipropylamino)-2-oxoethyl)imidazo[1,2-a]pyridin-8-ylamino)-2-oxoethylamino)-2-(4-(((2,4-diaminopteridin-6-yl)methyl)(methyl)amino)benzamido)-5-oxopentanoic acid] the melting point was 190 °C (dec.), the IC50 (SF126 human glioma cells) was 25 ± 2.6 nM and the IC50 (RG2 rat glioma cells) was 15.2 ± 2.9 nM. It also gave a half-life [1] of 74 ± 12 h, a half-life [2] of over 3 h and a Papp at 2 h, 75 µM [3] of 3.32 ×10⁻⁶ cm/s. For the same compound, the “SI (selectivity index)” value (TSPO [4]) was >2.5 × 10^3, the IC50 (TSPO [4]) was 40.3 ± 3.8 nM and the IC50 [5] was over 100000 nM. For the same compound, the IC50 (C6 rat glioma cells) was 2.2 ± 0.6 nM and the IC50 (SF188 human glioma cells) was 18.2 ± 2 nM.

In the case of `CN(Cc1cnc2nc(N)nc(N)c2n1)c1ccc(C(=O)N[C@@H](CCC(=O)O)C(=O)O)cc1` [MTX, 2,4-diamino-N^10-methylpteroylglutamic acid, reference compound], the IC50 (SF126 human glioma cells) is reported as 1.2 ± 0.3 nM, the IC50 (RG2 rat glioma cells) is reported as 3.8 ± 1.5 nM and the Papp at 2 h, 75 µM (in vitro) is reported as 0.091 ×10⁻⁶ cm/s. The IC50 (C6 rat glioma cells) was 2.6 ± 0.8 nM and the IC50 (SF188 human glioma cells) was 1.2 ± 0.2 nM.
